Results from patent publication US20110028566A1, “COMPOSITIONS AND PRODUCTS CONTAINING CYCLOALIPHATIC DIOL ANTIMICROBIAL AGENTS AND METHODS OF USING THE COMPOSITIONS AND PRODUCTS” (EASTMAN CHEMICAL COMPANY, priority 2009, published 2011).

Columns and labels:
Test in all cases: Microbial challenge testing in BPW
Format in all cases: cell-based
Aeromonas sp. = settings: for Grade code, Aeromonas sp, 3 Days / Grade code, Aeromonas sp, 14 Days / Grade code, Aeromonas sp, 30 Days: BPW, w/v % in label, average of replicates
Summary of the method: (§1)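 Each organism, grown in TSB with 1% dextrose 96 h or more at 35 °C, was inoculated to 10^5–10^6 cfu/mL into BPW (pH 7.0, 1% dextrose) containing test materials at set w/v %. Broth-alone controls were run. Tubes were held 14 days at 35 °C, then at room temperature.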

Bacillus subtilis = settings: for Grade code, B. subtilis, 3 Day / Grade code, B. subtilis, 14 Day / Grade code, B. subtilis, 30 Days: BPW, w/v % in label, average of replicates
Summary of the method: as §1

Burkholderia cepacia = settings: for Grade code, B. cepacia, 3 Days / Grade code, B. cepacia, 14 Days / Grade code, B. cepacia, 30 Days: BPW, w/v % in label, average of replicates
Summary of the method: as §1

Escherichia coli = settings: for Grade code, E. coli, 3 Day / Grade code, E. coli, 14 Day / Grade code, E. coli, 30 Day: BPW, w/v % in label, average of replicates
Summary of the method: as §1

Proteus vulgaris = system: Proteus vulgaris
Summary of the method: as §1

[1] = 3 days incubation, listed as 0.5% AB
[2] = 3 days incubation, listed as 1.25% AB
[3] = 3 days incubation, listed as 2.5% AB
[4] = 14 days incubation, listed as 0.5% AB
[5] = 14 days incubation, listed as 1.25% AB
[6] = 14 days incubation, listed as 2.5% AB
[7] = 30 days incubation, listed as 0.5% AB
[8] = 30 days incubation, listed as 1.25% AB
[9] = 30 days incubation, listed as 2.5% AB

OCC1CCC(CO)CC1 (stereo not drawn) [1,4-CHDM, 1,4-cyclohexanedimethanol]
Grade code Aeromonas sp (Aeromonas sp.; 0.5%, 3 days incubation): 5 (More than 10,000 colonies estimated (thus >100,000 cfu/mL)) | Grade code Aeromonas sp (Aeromonas sp.; 0.5%, 14 days incubation): 4 (1001 to 10,000 colonies (thus 10,000 cfu/mL to 100,000 cfu/mL)) | Grade code Aeromonas sp (Aeromonas sp.; 0.5%, 30 days incubation): 4 (1001 to 10,000 colonies (thus 10,000 cfu/mL to 100,000 cfu/mL)) | Grade code Aeromonas sp (Aeromonas sp.; 1.25%, 3 days incubation): 4 (1001 to 10,000 colonies (thus 10,000 cfu/mL to 100,000 cfu/mL)) | Grade code Aeromonas sp (Aeromonas sp.; 1.25%, 14 days incubation): 3 (101 to 1000 colonies (thus 1000 to 10,000 cfu/mL)) | Grade code Aeromonas sp (Aeromonas sp.; 1.25%, 30 days incubation): 2 (52 to 100 colonies counted (thus 520 to 1000 cfu/mL)) | Grade code Aeromonas sp (Aeromonas sp.; 2.5%, 3 days incubation): 3 (101 to 1000 colonies (thus 1000 to 10,000 cfu/mL)) | Grade code Aeromonas sp (Aeromonas sp.; 2.5%, 14 days incubation): 1 (1 to 51 colonies counted (thus 10 to 510 cfu/mL)) | Grade code Aeromonas sp (Aeromonas sp.; 2.5%, 30 days incubation): 0 (No growth detected or <1 colony (thus <10 cfu/mL)) | Grade code, Aeromonas sp, 3 Days (Aeromonas sp.; [1]): 5 (More than 10,000 colonies estimated (thus >100,000 cfu/mL)) | Grade code, Aeromonas sp, 3 Days (Aeromonas sp.; [2]): 4 (1001 to 10,000 colonies (thus 10,000 cfu/mL to 100,000 cfu/mL)) | Grade code, Aeromonas sp, 3 Days (Aeromonas sp.; [3]): 3 (101 to 1000 colonies (thus 1000 to 10,000 cfu/mL)) | Grade code, Aeromonas sp, 14 Days (Aeromonas sp.; [4]): 4 (1001 to 10,000 colonies (thus 10,000 cfu/mL to 100,000 cfu/mL)) | Grade code, Aeromonas sp, 14 Days (Aeromonas sp.; [5]): 3 (101 to 1000 colonies (thus 1000 to 10,000 cfu/mL)) | Grade code, Aeromonas sp, 14 Days (Aeromonas sp.; [6]): 1 (1 to 51 colonies counted (thus 10 to 510 cfu/mL)) | Grade code, Aeromonas sp, 30 Days (Aeromonas sp.; [7]): 4 (1001 to 10,000 colonies (thus 10,000 cfu/mL to 100,000 cfu/mL)) | Grade code, Aeromonas sp, 30 Days (Aeromonas sp.; [8]): 2 (52 to 100 colonies counted (thus 520 to 1000 cfu/mL)) | Grade code, Aeromonas sp, 30 Days (Aeromonas sp.; [9]): 0 (No growth detected or <1 colony (thus <10 cfu/mL)) | Grade code B. subtilis (Bacillus subtilis; 0.5%, 3 days incubation): 4 (1001 to 10,000 colonies (thus 10,000 cfu/mL to 100,000 cfu/mL)) | Grade code B. subtilis (Bacillus subtilis; 0.5%, 14 days incubation): 4 (1001 to 10,000 colonies (thus 10,000 cfu/mL to 100,000 cfu/mL)) | Grade code B. subtilis (Bacillus subtilis; 0.5%, 30 days incubation): 4 (1001 to 10,000 colonies (thus 10,000 cfu/mL to 100,000 cfu/mL)) | Grade code B. subtilis (Bacillus subtilis; 1.25%, 3 days incubation): 4 (1001 to 10,000 colonies (thus 10,000 cfu/mL to 100,000 cfu/mL)) | Grade code B. subtilis (Bacillus subtilis; 1.25%, 14 days incubation): 4 (1001 to 10,000 colonies (thus 10,000 cfu/mL to 100,000 cfu/mL)) | Grade code B. subtilis (Bacillus subtilis; 1.25%, 30 days incubation): 4 (1001 to 10,000 colonies (thus 10,000 cfu/mL to 100,000 cfu/mL)) | Grade code B. subtilis (Bacillus subtilis; 2.5%, 3 days incubation): 3 (101 to 1000 colonies (thus 1000 to 10,000 cfu/mL)) | Grade code B. subtilis (Bacillus subtilis; 2.5%, 14 days incubation): 2 (52 to 100 colonies counted (thus 520 to 1000 cfu/mL)) | Grade code B. subtilis (Bacillus subtilis; 2.5%, 30 days incubation): 1 (1 to 51 colonies counted (thus 10 to 510 cfu/mL)) | Grade code, B. subtilis, 3 Day (Bacillus subtilis; [1]): 4 (1001 to 10,000 colonies (thus 10,000 cfu/mL to 100,000 cfu/mL)) | Grade code, B. subtilis, 3 Day (Bacillus subtilis; [2]): 4 (1001 to 10,000 colonies (thus 10,000 cfu/mL to 100,000 cfu/mL)) | Grade code, B. subtilis, 3 Day (Bacillus subtilis; [3]): 3 (101 to 1000 colonies (thus 1000 to 10,000 cfu/mL)) | Grade code, B. subtilis, 14 Day (Bacillus subtilis; [4]): 4 (1001 to 10,000 colonies (thus 10,000 cfu/mL to 100,000 cfu/mL)) | Grade code, B. subtilis, 14 Day (Bacillus subtilis; [5]): 4 (1001 to 10,000 colonies (thus 10,000 cfu/mL to 100,000 cfu/mL)) | Grade code, B. subtilis, 14 Day (Bacillus subtilis; [6]): 2 (52 to 100 colonies counted (thus 520 to 1000 cfu/mL)) | Grade code, B. subtilis, 30 Days (Bacillus subtilis; [7]): 4 (1001 to 10,000 colonies (thus 10,000 cfu/mL to 100,000 cfu/mL)) | Grade code, B. subtilis, 30 Days (Bacillus subtilis; [8]): 4 (1001 to 10,000 colonies (thus 10,000 cfu/mL to 100,000 cfu/mL)) | Grade code, B. subtilis, 30 Days (Bacillus subtilis; [9]): 1 (1 to 51 colonies counted (thus 10 to 510 cfu/mL)) | Grade code B. cepacia (Burkholderia cepacia; 0.5%, 3 days incubation): 4 (1001 to 10,000 colonies (thus 10,000 cfu/mL to 100,000 cfu/mL)) | Grade code B. cepacia (Burkholderia cepacia; 0.5%, 14 days incubation): 4 (1001 to 10,000 colonies (thus 10,000 cfu/mL to 100,000 cfu/mL)) | Grade code B. cepacia (Burkholderia cepacia; 0.5%, 30 days incubation): 4 (1001 to 10,000 colonies (thus 10,000 cfu/mL to 100,000 cfu/mL)) | Grade code B. cepacia (Burkholderia cepacia; 1.25%, 3 days incubation): 4 (1001 to 10,000 colonies (thus 10,000 cfu/mL to 100,000 cfu/mL)) | Grade code B. cepacia (Burkholderia cepacia; 1.25%, 14 days incubation): 2 (52 to 100 colonies counted (thus 520 to 1000 cfu/mL)) | Grade code B. cepacia (Burkholderia cepacia; 1.25%, 30 days incubation): 4 (1001 to 10,000 colonies (thus 10,000 cfu/mL to 100,000 cfu/mL)) | Grade code B. cepacia (Burkholderia cepacia; 2.5%, 3 days incubation): 0 (No growth detected or <1 colony (thus <10 cfu/mL)) | Grade code B. cepacia (Burkholderia cepacia; 2.5%, 14 days incubation): 0 (No growth detected or <1 colony (thus <10 cfu/mL)) | Grade code B. cepacia (Burkholderia cepacia; 2.5%, 30 days incubation): 0 (No growth detected or <1 colony (thus <10 cfu/mL)) | Grade code, B. cepacia, 3 Days (Burkholderia cepacia; [1]): 4 (1001 to 10,000 colonies (thus 10,000 cfu/mL to 100,000 cfu/mL)) | Grade code, B. cepacia, 3 Days (Burkholderia cepacia; [2]): 4 (1001 to 10,000 colonies (thus 10,000 cfu/mL to 100,000 cfu/mL)) | Grade code, B. cepacia, 3 Days (Burkholderia cepacia; [3]): 0 (No growth detected or <1 colony (thus <10 cfu/mL)) | Grade code, B. cepacia, 14 Days (Burkholderia cepacia; [4]): 4 (1001 to 10,000 colonies (thus 10,000 cfu/mL to 100,000 cfu/mL)) | Grade code, B. cepacia, 14 Days (Burkholderia cepacia; [5]): 2 (52 to 100 colonies counted (thus 520 to 1000 cfu/mL)) | Grade code, B. cepacia, 14 Days (Burkholderia cepacia; [6]): 0 (No growth detected or <1 colony (thus <10 cfu/mL)) | Grade code, B. cepacia, 30 Days (Burkholderia cepacia; [7]): 4 (1001 to 10,000 colonies (thus 10,000 cfu/mL to 100,000 cfu/mL)) | Grade code, B. cepacia, 30 Days (Burkholderia cepacia; [8]): 4 (1001 to 10,000 colonies (thus 10,000 cfu/mL to 100,000 cfu/mL)) | Grade code, B. cepacia, 30 Days (Burkholderia cepacia; [9]): 0 (No growth detected or <1 colony (thus <10 cfu/mL)) | Grade code E. coli (Escherichia coli; 0.5%, 3 days incubation): 5 (More than 10,000 colonies estimated (thus >100,000 cfu/mL)) | Grade code E. coli (Escherichia coli; 0.5%, 14 days incubation): 4 (1001 to 10,000 colonies (thus 10,000 cfu/mL to 100,000 cfu/mL)) | Grade code E. coli (Escherichia coli; 0.5%, 30 days incubation): 4 (1001 to 10,000 colonies (thus 10,000 cfu/mL to 100,000 cfu/mL)) | Grade code E. coli (Escherichia coli; 1.25%, 3 days incubation): 4 (1001 to 10,000 colonies (thus 10,000 cfu/mL to 100,000 cfu/mL)) | Grade code E. coli (Escherichia coli; 1.25%, 14 days incubation): 4 (1001 to 10,000 colonies (thus 10,000 cfu/mL to 100,000 cfu/mL)) | Grade code E. coli (Escherichia coli; 1.25%, 30 days incubation): 4 (1001 to 10,000 colonies (thus 10,000 cfu/mL to 100,000 cfu/mL)) | Grade code E. coli (Escherichia coli; 2.5%, 3 days incubation): 3 (101 to 1000 colonies (thus 1000 to 10,000 cfu/mL)) | Grade code E. coli (Escherichia coli; 2.5%, 14 days incubation): 2 (52 to 100 colonies counted (thus 520 to 1000 cfu/mL)) | Grade code E. coli (Escherichia coli; 2.5%, 30 days incubation): 0 (No growth detected or <1 colony (thus <10 cfu/mL)) | Grade code, E. coli, 3 Day (Escherichia coli; [1]): 5 (More than 10,000 colonies estimated (thus >100,000 cfu/mL)) | Grade code, E. coli, 3 Day (Escherichia coli; [2]): 4 (1001 to 10,000 colonies (thus 10,000 cfu/mL to 100,000 cfu/mL)) | Grade code, E. coli, 3 Day (Escherichia coli; [3]): 3 (101 to 1000 colonies (thus 1000 to 10,000 cfu/mL)) | Grade code, E. coli, 14 Day (Escherichia coli; [4]): 4 (1001 to 10,000 colonies (thus 10,000 cfu/mL to 100,000 cfu/mL)) | Grade code, E. coli, 14 Day (Escherichia coli; [5]): 4 (1001 to 10,000 colonies (thus 10,000 cfu/mL to 100,000 cfu/mL)) | Grade code, E. coli, 14 Day (Escherichia coli; [6]): 2 (52 to 100 colonies counted (thus 520 to 1000 cfu/mL)) | Grade code, E. coli, 30 Day (Escherichia coli; [7]): 4 (1001 to 10,000 colonies (thus 10,000 cfu/mL to 100,000 cfu/mL)) | Grade code, E. coli, 30 Day (Escherichia coli; [8]): 4 (1001 to 10,000 colonies (thus 10,000 cfu/mL to 100,000 cfu/mL)) | Grade code, E. coli, 30 Day (Escherichia coli; [9]): 0 (No growth detected or <1 colony (thus <10 cfu/mL)) | Grade code P. vulqaris (Proteus vulgaris; 0.5%, 3 days incubation): 4 (1001 to 10,000 colonies (thus 10,000 cfu/mL to 100,000 cfu/mL)) | Grade code P. vulqaris (Proteus vulgaris; 0.5%, 13 days incubation): 4 (1001 to 10,000 colonies (thus 10,000 cfu/mL to 100,000 cfu/mL)) | Grade code P. vulqaris (Proteus vulgaris; 0.5%, 30 days incubation): 4 (1001 to 10,000 colonies (thus 10,000 cfu/mL to 100,000 cfu/mL)) | Grade code P. vulqaris (Proteus vulgaris; 1.25%, 3 days incubation): 3 (101 to 1000 colonies (thus 1000 to 10,000 cfu/mL)) | Grade code P. vulqaris (Proteus vulgaris; 1.25%, 13 days incubation): 2 (52 to 100 colonies counted (thus 520 to 1000 cfu/mL)) | Grade code P. vulqaris (Proteus vulgaris; 1.25%, 30 days incubation): 0 (No growth detected or <1 colony (thus <10 cfu/mL)) | Grade code P. vulqaris (Proteus vulgaris; 2.5%, 3 days incubation): 1 (1 to 51 colonies counted (thus 10 to 510 cfu/mL)) | Grade code P. vulqaris (Proteus vulgaris; 2.5%, 13 days incubation): 0 (No growth detected or <1 colony (thus <10 cfu/mL)) | Grade code P. vulqaris (Proteus vulgaris; 2.5%, 30 days incubation): 0 (No growth detected or <1 colony (thus <10 cfu/mL))
